Nine molecules from patent US20080064718A1, “INHIBITORS OF PROTEIN TYROSINE KINASE ACTIVITY” (priority 2006, published 2008) can be followed below.

In general, IC50 refers to the concentration that inhibits the measured activity by half.

In one test the target is T1, VEGF receptor KDR (Homo sapiens, UniProt P35968).
T1 construct: made in house; host or cells: Sf9 cells (Spodoptera frugiperda), recombinant baculovirus
Kind of test: In vitro receptor tyrosine kinase assay, VEGF receptor KDR (DELFIA). In kind it is biochemical. Conditions: GST-VEGFR2 806-1356, ATP 0.6 uM; read-out: VEGFR IC50. An excerpt:
In the case of VEGF receptor KDR a 1.6-kb cDNA corresponding to the catalytic domain of VEGFR2 or KDR (Genbank accession number AF035121 amino acid 806 to 1356) is cloned into the Pst I site of the pDEST20 Gateway vector (Invitrogen) for the production of a GST-tagged version of that enzyme.
The GST-VEGFR2806-1356 protein is expressed in Sf9 cells (Spodoptera frugiperda) upon infection with recombinant baculovirus construct.
The supernatant is loaded onto a GST-agarose column (Sigma) equilibrated with PBS pH 7.3. Following a four column volume (CV) wash with PBS pH 7.3+1% Triton X-100 and 4 CV wash with buffer B (50 mM Tris pH 8.0, 20% glycerol and 100 mM NaCl), bound proteins are step eluted with 5 CV of buffer B supplemented with 5 mM DTT and 15 mM glutathion. […] Final GST-VEGFR2806-1356 protein preparations concentrations are about 0.7 mg/ml with purity approximating 70%.

The subject of a further test is DU145. The test is described as follows: DU145 scattering. In kind it is cell-based. Conditions: Homo sapiens, DU-145; DU145 cells; read-out: CMET DU145 SCATT HEAL- IC50 UM.
The target in the next test is T2, c-Met (Homo sapiens, UniProt P08581).
T2 construct: endogenous in cells; host or cells: MKN45 gastric carcinoma cells
The test is described as follows: c-Met phosphorylation direct ELISA in MKN45 cells. Conditions: 3 h treatment. In kind it is cell-based. How it is done: Alternatively, the following assay is used to determine inhibition of c-Met phosphorylation.
The c-Met receptor is expressed in numerous cancer cell lines derived from tumors of epithelial origin. In MKN45 gastric carcinoma cells the c-Met gene is amplified, resulting in several-fold overexpression of the receptor and its constitutive activation.
Cell treatments: MKN45 cells are seeded into wells of 96-well plates at a density of 3×10^4 cells/well in RPMI medium supplemented with 10% FBS. […] Inhibitors are added to the medium in triplicate wells at the indicated doses.
After an overnight protein binding incubation at 4° C., lysates are aspirated and wells are blocked for 1 h at 37° C. in TBST supplemented with 5% BSA. Plates are incubated with the primary antibodies anti-phospho-Tyrosine (Millipore, 4G10) diluted 1/15000 in TBST supplemented with 5% BSA for 1 h at room temperature. Plates are washed 3 times on a plate washer (SkanWasher, Molecular Devises), and incubated with the reporter antibody […] (Sigma) diluted 1/15000 in TBST supplemented with 5% BSA, for 1 h at room temperature. Plates are washed 3 times with TBST using on a plate washer and subsequently incubated with chemiluminescent substrate solution (ECL, Roche). Luminescence signal is captured on a Polar Star Optima apparatus (BMG LabTech).
Average values of the triplicate samples are used to prepare IC50 curves using a 4-parameter fit model. These curves are calculated using, for example, GraFit 5.0 software. For assay standardization purpose, an internal control is included on each experimental test plate.

A further test has as its system A549. Kind of test: A549 inhibition of wound healing. To be noted: Homo sapiens; A549 cells; read-out: A549 INHIB WND ING IC50 UM. In kind it is cell-based.
For test [1], the target named is recombinant human c-Met/HGF receptor (Homo sapiens, UniProt P08581). Kind of test: In vitro receptor tyrosine kinase assay, c-Met/HGF receptor (DELFIA).

Each structure is given as a SMILES string.

Sequence of recombinant human c-Met/HGF receptor (P08581 1078-1337): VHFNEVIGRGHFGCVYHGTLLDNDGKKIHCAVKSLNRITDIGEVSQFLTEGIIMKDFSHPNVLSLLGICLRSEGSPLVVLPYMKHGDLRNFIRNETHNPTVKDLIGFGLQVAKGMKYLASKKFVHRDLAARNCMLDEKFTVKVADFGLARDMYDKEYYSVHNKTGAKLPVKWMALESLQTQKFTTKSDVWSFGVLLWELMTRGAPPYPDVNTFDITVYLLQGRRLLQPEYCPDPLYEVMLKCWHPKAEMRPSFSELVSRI
T2 sequence (P08581 25-1390): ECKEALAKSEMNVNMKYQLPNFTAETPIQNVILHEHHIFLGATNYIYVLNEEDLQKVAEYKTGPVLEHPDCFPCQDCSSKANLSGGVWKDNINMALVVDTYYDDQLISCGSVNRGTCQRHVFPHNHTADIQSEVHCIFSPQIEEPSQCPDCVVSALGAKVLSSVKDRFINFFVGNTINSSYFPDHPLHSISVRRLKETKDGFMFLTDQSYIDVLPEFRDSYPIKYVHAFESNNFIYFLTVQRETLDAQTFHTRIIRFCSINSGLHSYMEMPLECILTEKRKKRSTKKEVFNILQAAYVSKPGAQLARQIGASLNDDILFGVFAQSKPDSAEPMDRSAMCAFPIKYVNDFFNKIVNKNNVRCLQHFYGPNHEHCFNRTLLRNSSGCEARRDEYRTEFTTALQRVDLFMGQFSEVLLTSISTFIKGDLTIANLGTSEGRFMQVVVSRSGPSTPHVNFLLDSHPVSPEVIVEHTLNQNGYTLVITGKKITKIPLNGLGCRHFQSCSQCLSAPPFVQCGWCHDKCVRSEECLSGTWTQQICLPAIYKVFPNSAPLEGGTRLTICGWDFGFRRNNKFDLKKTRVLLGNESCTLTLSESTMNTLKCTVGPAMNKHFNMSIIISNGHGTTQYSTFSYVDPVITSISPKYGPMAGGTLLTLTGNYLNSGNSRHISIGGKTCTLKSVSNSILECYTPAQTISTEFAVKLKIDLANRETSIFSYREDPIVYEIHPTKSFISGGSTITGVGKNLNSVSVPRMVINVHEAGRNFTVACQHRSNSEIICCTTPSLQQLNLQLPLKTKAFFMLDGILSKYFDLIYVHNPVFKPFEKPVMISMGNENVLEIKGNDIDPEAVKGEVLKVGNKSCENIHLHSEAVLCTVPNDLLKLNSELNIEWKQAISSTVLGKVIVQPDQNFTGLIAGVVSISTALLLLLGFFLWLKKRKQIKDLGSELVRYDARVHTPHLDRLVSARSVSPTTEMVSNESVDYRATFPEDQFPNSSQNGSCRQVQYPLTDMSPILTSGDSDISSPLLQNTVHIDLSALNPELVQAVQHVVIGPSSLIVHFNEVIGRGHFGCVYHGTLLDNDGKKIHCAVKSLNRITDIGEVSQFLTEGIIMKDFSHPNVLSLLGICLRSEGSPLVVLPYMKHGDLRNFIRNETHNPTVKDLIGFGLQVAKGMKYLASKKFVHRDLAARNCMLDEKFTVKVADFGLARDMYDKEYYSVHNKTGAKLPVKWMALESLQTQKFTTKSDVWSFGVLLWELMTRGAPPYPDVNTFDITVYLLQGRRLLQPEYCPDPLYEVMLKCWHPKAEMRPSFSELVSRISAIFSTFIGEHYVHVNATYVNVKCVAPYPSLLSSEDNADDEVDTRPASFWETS
T1 sequence (P35968 806-1356): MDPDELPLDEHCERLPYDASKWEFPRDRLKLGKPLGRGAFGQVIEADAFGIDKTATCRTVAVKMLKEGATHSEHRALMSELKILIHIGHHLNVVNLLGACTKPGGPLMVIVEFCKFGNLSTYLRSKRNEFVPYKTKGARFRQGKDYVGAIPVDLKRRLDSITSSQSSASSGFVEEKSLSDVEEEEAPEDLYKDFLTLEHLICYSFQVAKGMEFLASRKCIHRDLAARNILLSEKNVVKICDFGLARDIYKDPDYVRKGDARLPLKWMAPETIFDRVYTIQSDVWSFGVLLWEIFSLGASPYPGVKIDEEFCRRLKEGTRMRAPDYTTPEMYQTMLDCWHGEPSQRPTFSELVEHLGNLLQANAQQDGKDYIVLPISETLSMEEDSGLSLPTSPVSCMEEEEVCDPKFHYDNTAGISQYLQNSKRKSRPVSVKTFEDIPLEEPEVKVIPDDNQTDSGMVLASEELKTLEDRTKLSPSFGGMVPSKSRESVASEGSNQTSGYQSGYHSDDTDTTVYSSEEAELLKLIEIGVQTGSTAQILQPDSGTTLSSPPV

Consider `COC[C@H](C)NCc1ccc(-c2cc3nccc(Oc4ccc(NC(=O)N5CCN(c6ccccc6)C5=O)cc4F)c3s2)cc1`, for which the IC50 (at VEGF receptor KDR; in the test on DU145; on c-Met; in the test on A549; in test [1]) was below 250 nM in each case.

On to `O=C(Nc1ccc(Oc2ccnc3cc(-c4ccc(CNC5CC5)cc4)sc23)c(F)c1)N1CCN(c2ccccc2)C1=O`, for which the IC50 is below 250 nM on VEGF receptor KDR; below 250 nM with DU145; below 250 nM against c-Met; 250 to 500 nM in the test with A549; below 250 nM in test [1].

As to `CN(C)CC(=O)N1CC=C(c2cc3nccc(Oc4ccc(NC(=O)N5CCN(c6ccccc6)C5=O)cc4F)c3s2)CC1`, the IC50 (on VEGF receptor KDR; in the test on DU145; at c-Met; with A549; in test [1]) was below 250 nM in each case.

For `Cn1ccnc1-c1cc2nccc(Oc3ccc(NC(=O)c4cccc(-c5ccccc5)c4F)cc3F)c2s1`, the IC50 on VEGF receptor KDR was below 250 nM; in the test with DU145, above 1000 nM; at c-Met, 500 to 1000 nM; in the test with A549, 250 to 500 nM; in test [1], below 250 nM.

For the molecule `CCn1cnc(-c2cc3nccc(Oc4ccc(N(C)C(=O)N5CCN(c6ccccc6)C5=O)cc4F)c3s2)c1`, the IC50 is below 250 nM at VEGF receptor KDR; above 1000 nM with DU145; 500 to 1000 nM on c-Met; above 1000 nM in the test on A549; 500 to 1000 nM in test [1].

For `O=C(NNC(=O)c1ccccc1)Nc1ccc(Oc2ccnc3cc(C4=CCNCC4)sc23)c(F)c1`, the IC50 on VEGF receptor KDR was below 250 nM; in the test with DU145, above 1000 nM; against c-Met, above 1000 nM; with A549 it was above 1000 nM; in test [1] it was 250 to 500 nM.

Consider `CS(=O)(=O)CCNCc1ccc(-c2cc3nccc(Oc4ccc(NC(=O)N5CCN(c6ccccc6)C5=O)cc4F)c3s2)cc1`, for which the IC50 on VEGF receptor KDR is below 250 nM; in the test with DU145 it was 250 to 500 nM; against c-Met, below 250 nM; in the test with A549, above 1000 nM; in test [1], below 250 nM.

In the case of `C=CCN1CCN(C(=O)Nc2ccc(Oc3ccnc4cc(-c5cn(CC)cn5)sc34)c(F)c2)C1=O`, the IC50 was below 250 nM on VEGF receptor KDR; 250 to 500 nM with DU145; 250 to 500 nM at c-Met; 250 to 500 nM in the test on A549; below 250 nM in test [1].

On to `CN(C)C(=O)c1ccc(-c2cc3nccc(Oc4ccc(NC(=O)N5CCN(c6ccccc6)C5=O)cc4F)c3s2)cc1`, for which the IC50 at VEGF receptor KDR is below 250 nM; with DU145, 250 to 500 nM; at c-Met, below 250 nM; with A549, below 250 nM; in test [1] it was below 250 nM.
